Each structure is given as a SMILES string.

The values below come from patent US8927547B2, “Pyrimidine derivatives” (Noviga Research AB, priority 2010, dated 2015).

For this assay, the system named is CCRF-CEM cancer cells - leukaemia. Description: Fluorometric Microculture Cytotoxicity Assay (FMCA), CCRF-CEM. The format is cell-based. As to conditions: Homo sapiens, 72 h incubation. From the text:
The Fluorometric Microculture Cytotoxicity Assay, FMCA, is a three day non-clonogenic microplate-based cell viability assay used for measurement of the cytotoxic and/or cytostatic effect of compounds in vitro (Lindhagen, E., et al. Nat Protoc, 2008. 3(8): p. 1364-9). FMCA (Larsson, R. and P. Nygren, Anticancer Res, 1989. 9(4): p. 1111-9) represents a valuable method to measure cytotoxicity in a number of cell types, both cell lines and primary cells from patients (Larsson, R., et al., Int J Cancer, 1992. 50(2): p. 177-85; Fridborg, H., et al., Eur J Cancer, 1999. 35(3): p. 424-32; Dhar, S., et al., Br J Cancer, 1996. 74(6): p. 888-96).
FMCA is based on the principle that fluorescein diacetate (FDA) is converted to the fluorescent probe fluorescein by esterases in the plasma membranes of living cells. For experiments, 96 or 384-well microplates are prepared with compounds and stored at −70° C. until use. Cells are then seeded into the drug-prepared plates and placed in an incubator for 72 h. On the last day of incubation, the plates are washed and a buffer containing FDA is added and incubated with the cells for 45 minutes. Finally the fluorescence per well is measured in a fluorometer and a Survival Index % (SI) for each compound-treated well is calculated with the equation: Compound-treated cells minus blank divided by control cells minus blank. A high SI-value indicates a large percentage of living cells and vice versa.
In subsequent experiments, compounds were tested, along with kinase inhibitors (dasatinib, pazopanib, sorafenib, and sunitinib) as described above. Initially, the acute lymphoblastic leukaemia cell line CCRF-CEM (see e.g. Foley G E, et al. Cancer 1965, 18, 522-529) was used throughout. In the assay plates, medium was added to six empty wells (blank wells) and wells were filled with PBS and cell suspension and served as control wells. SI-values were then calculated for each compound-treated well as described above. All experiments were conducted twice and a new batch of plates was prepared for each experiment.
For dose-response experiments, 384-well plates were prepared as follows:
Compounds of the invention as well as kinase inhibitors sorafenib, sunitinib, dasatinib, and pazopanib (reference compounds) were diluted with PBS to a concentration which was ten-times higher than the desired starting concentration. Then, a Biomek 2000 liquid handling system was employed to serially dilute the compounds in a deep-well 384-well plate. From this plate, assay plates containing 5 μl compound per well were prepared with the Biomek 2000. Certain compounds precipitated when diluted with PBS, and these compounds were therefore prepared in a 96-well plate manually as described above using culture medium RPMI 1640 instead of PBS.
The compounds were also tested at five concentrations, with five times serial dilution on the following cell types: CCRF-CEM, hTERT-RPE1 (normal retinal epithelial cells), hRPTEpiC (normal renal cells) and PBMC (peripheral blood mononuclear cells). Each experiment was performed three times, except for PBMC and hRPTEpiC, which were performed twice. SI-values were calculated, graphs were plotted using GraphPadPrism 5.0 (GraphPad Software Inc. La Jolla, Calif.) and EC50-values for each cell type and compound were determined from the curves.
Usually EC50 stands for the concentration that produces a half-maximal response. Compound `c1cc(NCc2ccc3[nH]ccc3c2)nc(Nc2ccc3[nH]ccc3c2)n1` [Example 2, N^4-(1H-indol-5-ylmethyl)-N^2-(1H-indol-5-yl)pyrimidine-2,4-diamine] yielded an EC50 of 4.83 µM. The figure for `Cc1cc2cc(Nc3nccc(NCc4ccc5[nH]ccc5c4)n3)ccc2[nH]1` [Example 3, N^4-(1H-indol-5-ylmethyl)-N^2-(2-methyl-1H-indol-5-yl)pyrimidine-2,4-diamine] is 4.25 µM; for `c1cc(NCc2ccc3[nH]ccc3c2)nc(Nc2ccc3[nH]ncc3c2)n1` [Example 4, N^4-(1H-indol-5-ylmethyl)-N^2-(1H-indazol-5-yl)pyrimidine-2,4-diamine] it is 4.07 µM; for `c1ccc2c(CCNc3nccc(NCc4ccc5[nH]ccc5c4)n3)c[nH]c2c1` [Example 9, N^2-[2-(1H-indol-3-yl)ethyl]-N^4-(1H-indol-5-ylmethyl)pyrimidine-2,4-diamine] it is 8.73 µM. Consider `Oc1ccc2[nH]cc(CCNc3nccc(NCc4ccc5[nH]ccc5c4)n3)c2c1` [Example 10, 3-{2-[4-(1H-indol-5-ylmethylamino)-pyrimidin-2-ylamino]ethyl}-1H-indol-5-ol], for which a half-maximal effect (EC50) was put at 10.2 µM. The figure for `Cc1ccc2[nH]cc(CCNc3nccc(NCc4ccc5[nH]ccc5c4)n3)c2c1` [Example 11, N^4-(1H-indol-5-ylmethyl)-N^2-[2-(5-methyl-1H-indol-3-yl)ethyl]pyrimidine-2,4-diamine] is 2.88 µM. In the case of `Cc1cc2cc(CNc3ccnc(Nc4cccc5[nH]ccc45)n3)ccc2[nH]1` [Example 13, N^2-(1H-indol-4-yl)-N^4-(2-methyl-1H-indol-5-ylmethyl)pyrimidine-2,4-diamine], a half-maximal response (EC50) required 0.55 µM. The figure for `Cc1cc2cc(CNc3ccnc(NCCc4c[nH]c5ccccc45)n3)ccc2[nH]1` [Example 17, N^2-(2-(1H-indol-3-yl)-ethyl)-N^4-(2-methyl-1H-indol-5-ylmethyl)pyrimidine-2,4-diamine] is 7.28 µM; for `c1cc(Nc2nccc(NCc3ccc4[nH]ncc4c3)n2)c2cc[nH]c2c1` [Example 18, N^2-(1H-indol-4-yl)-N^4-(1H-indazol-5-ylmethyl)pyrimidine-2,4-diamine] it is 0.71 µM; for `c1cc(Nc2nccc(NCc3ccc4cc[nH]c4c3)n2)c2cc[nH]c2c1` [Example 20, N^4-(1H-indol-6-ylmethyl)-N^2-(1H-indol-4-yl)pyrimidine-2,4-diamine] it is 1.01 µM. The result for `c1cc(Nc2ccnc(NCc3ccc4[nH]ccc4c3)n2)c2cc[nH]c2c1` [Example 23, N^2-(1H-indol-5-ylmethyl)-N^4-(1H-indol-4-yl)pyrimidine-2,4-diamine] reads 1.62 µM; that for `c1ccc2c(CCNc3ccnc(NCc4ccc5[nH]ccc5c4)n3)c[nH]c2c1` [Example 25, N^4-[2-(1H-indol-3-yl)ethyl]-N^2-(1H-indol-5-ylmethyl)pyrimidine-2,4-diamine], 3.16 µM; that for `Oc1ccc2[nH]cc(CCNc3ccnc(NCc4ccc5[nH]ccc5c4)n3)c2c1` [Example 26, 3-{2-[2-(1H-indol-5-ylmethylamino)-pyrimidin-4-ylamino]ethyl}-1H-indol-5-ol], 7.01 µM.

In turn, `Cc1ccc2[nH]cc(CCNc3ccnc(NCc4ccc5[nH]ccc5c4)n3)c2c1` [Example 27, N^2-(1H-indol-5-ylmethyl)-N^4-[2-(5-methyl-1H-indol-3-yl)ethyl]pyrimidine-2,4-diamine] showed an EC50 of 4.17 µM. The figure for `COc1ccc2[nH]cc(CCNc3ccnc(NCc4ccc5[nH]ccc5c4)n3)c2c1` [Example 28, N^2-(1H-indol-5-ylmethyl)-N^4-[2-(5-methoxy-1H-indol-3-yl)ethyl]pyrimidine-2,4-diamine] is 3.1 µM; for `c1cc(Nc2ccnc(NCc3ccc4[nH]ncc4c3)n2)c2cc[nH]c2c1` [Example 29, N^2-(1H-indazol-5-ylmethyl)-N^4-(1H-indol-4-yl)pyrimidine-2,4-diamine] it is 2.78 µM.

The compound `Cc1cc(NCc2ccc3[nH]ccc3c2)nc(NCCc2c[nH]c3ccc(O)cc23)n1` [Example 32, 3-{2-[4-(1H-indol-5-ylmethylamino)-6-methyl-pyrimidin-2-ylamino]-ethyl}-1H-indol-5-ol] showed an EC50 of 7.81 µM. `Cc1cc2cc(Nc3nc(NCc4ccc5[nH]ccc5c4)cc(C(F)(F)F)n3)ccc2[nH]1` [Example 33, N^4-(1H-indol-5-ylmethyl)-N^2-(2-methyl-1H-indol-5-yl)-6-trifluoromethylpyrimidine-2,4-diamine] returned an EC50 of 9.55 µM. The figure for `FC(F)(F)c1cc(NCc2ccc3[nH]ccc3c2)nc(NCCc2c[nH]c3ccccc23)n1` [Example 35, N^2-(2-(1H-indol-3-yl)ethyl)-N^4-(1H-indol-5-ylmethyl)-6-trifluoromethylpyrimidine-2,4-diamine] is 10.1 µM; for `Nc1cnc(Nc2cccc3[nH]ccc23)nc1NCc1ccc2[nH]ccc2c1` [Example 38, N^4-(1H-indol-5-ylmethyl)-N^2-(1H-indol-4-yl)pyrimidine-2,4,5-triamine] it is 4.33 µM; for `Nc1cnc(Nc2ccc3[nH]ccc3c2)nc1NCc1ccc2[nH]ccc2c1` [Example 39, N^4-(1H-indol-5-ylmethyl)-N^2-(1H-indol-5-yl)pyrimidine-2,4,5-triamine] it is 2.84 µM. `Nc1cnc(Nc2ccc3cc[nH]c3c2)nc1NCc1ccc2[nH]ccc2c1` [Example 40, N^4-(1H-indol-5-ylmethyl)-N^2-(1H-indol-6-yl)pyrimidine-2,4,5-triamine]: it took 4.17 µM to reach a half-maximal effect (EC50). The EC50 values of the last two compounds are within 1.5-fold of each other.

Turning to `Cc1cc2cc(CNc3nccc(Nc4ccc5[nH]c(C)cc5c4)n3)ccc2[nH]1` [Example 63, N^4-(2-methyl-1H-indol-5-yl)-N^2-(2-methyl-1H-indol-5-ylmethyl)pyrimidine-2,4-diamine], the midpoint of the response, the EC50, lay at 0.59 µM. In turn, `Cc1cc2cc(Nc3ccnc(NCc4ccc5[nH]ncc5c4)n3)ccc2[nH]1` [Example 65, N^2-(1H-indazol-5-ylmethyl)-N^4-(2-methyl-1H-indol-5-yl)pyrimidine-2,4-diamine] showed an EC50 of 0.92 µM. `COc1ccc2[nH]cc(CCNc3nccc(NCc4ccc5[nH]cnc5c4)n3)c2c1` [Example 69, N^4-(1H-benzo[d]imidazol-5-ylmethyl)-N^2-[2-(5-methoxy-1H-indol-3-yl)ethyl]pyrimidine-2,4-diamine] came in with an EC50 of less than 10 µM. `Cc1cc2cc(Nc3ccnc(NCc4ccc5cc[nH]c5c4)n3)ccc2[nH]1` [Example 70, N^2-(1H-indol-6-ylmethyl)-N^4-(2-methyl-1H-indol-5-yl)pyrimidine-2,4-diamine] displayed an EC50 of less than 10 µM.

In turn, `COc1ccc2[nH]cc(CCNc3nccc(NCc4ccc5cc[nH]c5c4)n3)c2c1` [Example 71, N^4-(1H-indol-6-ylmethyl)-N^2-[2-(5-methoxy-1H-indol-3-yl)ethyl]pyrimidine-2,4-diamine] had an EC50 of less than 10 µM. `c1ccc(COc2ccc3[nH]cc(CCNc4nccc(NCc5ccc6[nH]ccc6c5)n4)c3c2)cc1` [Example 72, N^4-(1H-indol-5-ylmethyl)-N^2-{2-[5-(benzyloxy)-1H-indol-3-yl]ethyl}pyrimidine-2,4-diamine] returned a half-maximal effective concentration (EC50) of less than 10 µM. `c1cc(NCc2ccc3[nH]ccc3c2)nc(NCCc2c[nH]c3ccc(OCCN4CCOCC4)cc23)n1` [Example 73, N^4-(1H-indol-5-ylmethyl)-N^2-{2-[5-(2-morpholinoethoxy)-1H-indol-3-yl]ethyl}pyrimidine-2,4-diamine] displayed an EC50 of less than 10 µM. `COCCOc1ccc2[nH]cc(CCNc3nccc(NCc4ccc5[nH]ccc5c4)n3)c2c1` [Example 74, N^4-(1H-indol-5-ylmethyl)-N^2-{2-[5-(2-methoxyethoxy)-1H-indol-3-yl]ethyl}pyrimidine-2,4-diamine] registered an EC50 of less than 10 µM.

In turn, `Cn1ccc2c(Nc3nccc(NCc4ccc5[nH]ccc5c4)n3)cccc21` [Example 75, N^4-(1H-indol-5-ylmethyl)-N^2-(1-methyl-1H-indol-4-yl)pyrimidine-2,4-diamine] showed an EC50 of 0.61 µM. The result for `COC(=O)c1cc(Nc2nccc(NCc3ccc4[nH]ccc4c3)n2)c2cc[nH]c2c1` [Example 81, Methyl 4-[4-(1H-indol-5-ylmethylamino)pyrimidin-2-ylamino]-1H-indole-6-carboxylate] reads less than 10 µM.
